Assay results from PubChem BioAssay (NCI).
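These data come from cells grown in 96-well plates and exposed to compound for 48 hours at five concentrations. GI50: concentration for 50% inhibition of growth. At the TGI there is no net growth.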

tested on: IGROV1 ovarian; test: inhibition of tumour cell growth, NCI panel, 48 h

SMILES	GI50	TGI
Nc1nn2cc(F)cnc2c1C(=O)Nc1cncc(F)c1N1CCC(C(=O)N2CCN(C3COC3)CC2)CC1	0.464 µM	3.04 µM

tested on: RPMI-8226 leukemia; test: inhibition of tumour cell growth, NCI panel, 48 h

SMILES	GI50	TGI
CC(=O)Nc1ccc(S(=O)(=O)N2C(=O)CCC2C(=O)Nc2ccc(Br)cc2)cc1 (centres undefined)	0.806 µM	4.46 µM
CO/N=C(/C)c1cccc(Nc2cc(-n3nnc4ccccc43)nc3ccccc23)c1	15.1 µM	> 100 µM
COc1cc(C(=O)N2CCN(C=O)C2=S)cc(OC)c1OC	–	42.3 µM
Cn1c(I)c(C#CCO[Si](C)(C)C(C)(C)C)c(=O)[nH]c1=O	4.39 µM	14.2 µM
CCCCC#CC1=C(Br)C(=O)OC1	0.32 µM	2.72 µM
O=C(Nc1ccc(Br)cc1F)c1cc(F)ccc1O	0.296 µM	1.36 µM
CC/C=C\C[C@H](O)C/C=C1/C(=O)C(Cl)=C[C@@H]1C/C=C\CCCC(=O)OC	0.21 µM	0.88 µM
c1ccc(-c2nnc(-c3ccccn3)s2)nc1	> 100 µM	> 100 µM
CN1CCN(C2CCN(C(=O)Nc3cc(Oc4ccc(NC(=O)C5(C(=O)Nc6ccc(F)cc6)CC5)c(F)c4)ccn3)CC2)CC1	1.62 µM	> 2.63 µM
CCN1CCN(C(=O)[C@@]2(C)CC[C@]3(C)CC[C@]4(C)C(=CC(=O)[C@@H]5[C@@]6(C)CC[C@H](OC7C[C@@H](O)[C@@H](O)C(C)O7)C(C)(C)[C@@H]6CC[C@]54C)[C@@H]3C2)CC1 (some centres undefined)	1.09 µM	2.52 µM
Nc1nn2cc(F)cnc2c1C(=O)Nc1cncc(F)c1N1CCC(C(=O)N2CCN(C3COC3)CC2)CC1	1.2 µM	–

tested on: SF-268 CNS; test: inhibition of tumour cell growth, NCI panel, 48 h

SMILES	GI50	TGI
CC(=O)Nc1ccc(S(=O)(=O)N2C(=O)CCC2C(=O)Nc2ccc(Br)cc2)cc1 (centres undefined)	2.76 µM	21.9 µM
CO/N=C(/C)c1cccc(Nc2cc(-n3nnc4ccccc43)nc3ccccc23)c1	30.5 µM	> 100 µM
COc1cc(C(=O)N2CCN(C=O)C2=S)cc(OC)c1OC	21.4 µM	43.7 µM
Cn1c(I)c(C#CCO[Si](C)(C)C(C)(C)C)c(=O)[nH]c1=O	15.9 µM	30.2 µM
CCCCC#CC1=C(Br)C(=O)OC1	2.47 µM	10.2 µM
O=C(Nc1ccc(Br)cc1F)c1cc(F)ccc1O	0.558 µM	10.1 µM
CC/C=C\C[C@H](O)C/C=C1/C(=O)C(Cl)=C[C@@H]1C/C=C\CCCC(=O)OC	0.505 µM	2.34 µM
c1ccc(-c2nnc(-c3ccccn3)s2)nc1	> 100 µM	> 100 µM
CN1CCN(C2CCN(C(=O)Nc3cc(Oc4ccc(NC(=O)C5(C(=O)Nc6ccc(F)cc6)CC5)c(F)c4)ccn3)CC2)CC1	–	> 2.96 µM
CCN1CCN(C(=O)[C@@]2(C)CC[C@]3(C)CC[C@]4(C)C(=CC(=O)[C@@H]5[C@@]6(C)CC[C@H](OC7C[C@@H](O)[C@@H](O)C(C)O7)C(C)(C)[C@@H]6CC[C@]54C)[C@@H]3C2)CC1 (some centres undefined)	1.6 µM	6.18 µM
Nc1nn2cc(F)cnc2c1C(=O)Nc1cncc(F)c1N1CCC(C(=O)N2CCN(C3COC3)CC2)CC1	1.33 µM	> 100 µM

tested on: SK-OV-3 ovarian; test: inhibition of tumour cell growth, NCI panel, 48 h

SMILES	GI50	TGI
CC(=O)Nc1ccc(S(=O)(=O)N2C(=O)CCC2C(=O)Nc2ccc(Br)cc2)cc1 (centres undefined)	3.58 µM	16.1 µM
CO/N=C(/C)c1cccc(Nc2cc(-n3nnc4ccccc43)nc3ccccc23)c1	> 100 µM	> 100 µM
COc1cc(C(=O)N2CCN(C=O)C2=S)cc(OC)c1OC	21.9 µM	72.8 µM
Cn1c(I)c(C#CCO[Si](C)(C)C(C)(C)C)c(=O)[nH]c1=O	> 100 µM	> 100 µM
CCCCC#CC1=C(Br)C(=O)OC1	36.1 µM	> 77.2 µM
O=C(Nc1ccc(Br)cc1F)c1cc(F)ccc1O	0.405 µM	2.55 µM
CC/C=C\C[C@H](O)C/C=C1/C(=O)C(Cl)=C[C@@H]1C/C=C\CCCC(=O)OC	4.72 µM	16.5 µM
c1ccc(-c2nnc(-c3ccccn3)s2)nc1	> 100 µM	> 100 µM
CN1CCN(C2CCN(C(=O)Nc3cc(Oc4ccc(NC(=O)C5(C(=O)Nc6ccc(F)cc6)CC5)c(F)c4)ccn3)CC2)CC1	1.3 µM	> 10 µM
CCN1CCN(C(=O)[C@@]2(C)CC[C@]3(C)CC[C@]4(C)C(=CC(=O)[C@@H]5[C@@]6(C)CC[C@H](OC7C[C@@H](O)[C@@H](O)C(C)O7)C(C)(C)[C@@H]6CC[C@]54C)[C@@H]3C2)CC1 (some centres undefined)	9.96 µM	19.5 µM
Nc1nn2cc(F)cnc2c1C(=O)Nc1cncc(F)c1N1CCC(C(=O)N2CCN(C3COC3)CC2)CC1	0.243 µM	6.02 µM

tested on: SNB-19 CNS; test: inhibition of tumour cell growth, NCI panel, 48 h

SMILES	GI50	TGI
CC(=O)Nc1ccc(S(=O)(=O)N2C(=O)CCC2C(=O)Nc2ccc(Br)cc2)cc1 (centres undefined)	2.38 µM	20.2 µM
CO/N=C(/C)c1cccc(Nc2cc(-n3nnc4ccccc43)nc3ccccc23)c1	30.2 µM	> 100 µM
COc1cc(C(=O)N2CCN(C=O)C2=S)cc(OC)c1OC	28.5 µM	70.4 µM
Cn1c(I)c(C#CCO[Si](C)(C)C(C)(C)C)c(=O)[nH]c1=O	> 100 µM	> 100 µM
CCCCC#CC1=C(Br)C(=O)OC1	12.9 µM	37.1 µM
O=C(Nc1ccc(Br)cc1F)c1cc(F)ccc1O	0.419 µM	> 100 µM
CC/C=C\C[C@H](O)C/C=C1/C(=O)C(Cl)=C[C@@H]1C/C=C\CCCC(=O)OC	0.946 µM	3.31 µM
c1ccc(-c2nnc(-c3ccccn3)s2)nc1	> 100 µM	> 100 µM
CN1CCN(C2CCN(C(=O)Nc3cc(Oc4ccc(NC(=O)C5(C(=O)Nc6ccc(F)cc6)CC5)c(F)c4)ccn3)CC2)CC1	0.354 µM	> 10 µM
CCN1CCN(C(=O)[C@@]2(C)CC[C@]3(C)CC[C@]4(C)C(=CC(=O)[C@@H]5[C@@]6(C)CC[C@H](OC7C[C@@H](O)[C@@H](O)C(C)O7)C(C)(C)[C@@H]6CC[C@]54C)[C@@H]3C2)CC1 (some centres undefined)	2.26 µM	8.57 µM
Nc1nn2cc(F)cnc2c1C(=O)Nc1cncc(F)c1N1CCC(C(=O)N2CCN(C3COC3)CC2)CC1	0.91 µM	7.68 µM

tested on: UACC-62 melanoma; test: inhibition of tumour cell growth, NCI panel, 48 h

SMILES	GI50	TGI
CC(=O)Nc1ccc(S(=O)(=O)N2C(=O)CCC2C(=O)Nc2ccc(Br)cc2)cc1 (centres undefined)	0.648 µM	4.54 µM
CO/N=C(/C)c1cccc(Nc2cc(-n3nnc4ccccc43)nc3ccccc23)c1	25.2 µM	> 100 µM
COc1cc(C(=O)N2CCN(C=O)C2=S)cc(OC)c1OC	15.8 µM	30.4 µM
Cn1c(I)c(C#CCO[Si](C)(C)C(C)(C)C)c(=O)[nH]c1=O	17.2 µM	32.2 µM
CCCCC#CC1=C(Br)C(=O)OC1	2.24 µM	7.1 µM
O=C(Nc1ccc(Br)cc1F)c1cc(F)ccc1O	0.285 µM	1 µM
CC/C=C\C[C@H](O)C/C=C1/C(=O)C(Cl)=C[C@@H]1C/C=C\CCCC(=O)OC	0.27 µM	0.717 µM
c1ccc(-c2nnc(-c3ccccn3)s2)nc1	> 100 µM	> 100 µM
CN1CCN(C2CCN(C(=O)Nc3cc(Oc4ccc(NC(=O)C5(C(=O)Nc6ccc(F)cc6)CC5)c(F)c4)ccn3)CC2)CC1	0.771 µM	> 2.02 µM
CCN1CCN(C(=O)[C@@]2(C)CC[C@]3(C)CC[C@]4(C)C(=CC(=O)[C@@H]5[C@@]6(C)CC[C@H](OC7C[C@@H](O)[C@@H](O)C(C)O7)C(C)(C)[C@@H]6CC[C@]54C)[C@@H]3C2)CC1 (some centres undefined)	0.892 µM	1.75 µM
Nc1nn2cc(F)cnc2c1C(=O)Nc1cncc(F)c1N1CCC(C(=O)N2CCN(C3COC3)CC2)CC1	0.522 µM	2.56 µM
